Assay results reported in PubChem BioAssay AID1259407 (Chemical Carcinogenesis Research Information System (CCRIS), 2018).
Active and inactive are the calls of the source. The rule behind the calls is not given here.

Tested on: CCRIS mutagenicity, Ames/micronucleus/aberration tests
Test: CCRIS mutagenicity studies
[1] = End Point: IN VITRO CHROMOSOMAL ABERRATIONS, Test System: CHO CELLS, Metabolic Activation: NONE
[2] = End Point: IN VITRO CHROMOSOMAL ABERRATIONS, Test System: CHO CELLS, Metabolic Activation: RAT, LIVER, S-9, AROCLOR 1254
[3] = Test System: AMES SALMONELLA TYPHIMURIUM, Strain/Indicator: TA98, Metabolic Activation: NONE, Method: STANDARD PLATE
[4] = Test System: AMES SALMONELLA TYPHIMURIUM, Strain/Indicator: TA98, Metabolic Activation: RAT, LIVER, S-9, AROCLOR 1254, Method: STANDARD PLATE
[5] = Test System: AMES SALMONELLA TYPHIMURIUM, Strain/Indicator: TA100, Metabolic Activation: NONE, Method: STANDARD PLATE
[6] = Test System: AMES SALMONELLA TYPHIMURIUM, Strain/Indicator: TA100, Metabolic Activation: RAT, LIVER, S-9, AROCLOR 1254, Method: STANDARD PLATE
[7] = Test System: AMES SALMONELLA TYPHIMURIUM, Strain/Indicator: TA1535, Metabolic Activation: NONE, Method: STANDARD PLATE
[8] = Test System: AMES SALMONELLA TYPHIMURIUM, Strain/Indicator: TA1535, Metabolic Activation: RAT, LIVER, S-9, AROCLOR 1254, Method: STANDARD PLATE
[9] = Test System: AMES SALMONELLA TYPHIMURIUM, Strain/Indicator: TA1537, Metabolic Activation: NONE, Method: STANDARD PLATE
[10] = Test System: AMES SALMONELLA TYPHIMURIUM, Strain/Indicator: TA1537, Metabolic Activation: RAT, LIVER, S-9, AROCLOR 1254, Method: STANDARD PLATE
[11] = Test System: AMES SALMONELLA TYPHIMURIUM, Strain/Indicator: TA100, Metabolic Activation: NONE, Method: PREINCUBATION
[12] = Test System: AMES SALMONELLA TYPHIMURIUM, Strain/Indicator: TA98, Metabolic Activation: NONE, Method: PREINCUBATION

For `OC[C@@H](O)[C@@H](O)[C@H](O)[C@H](O)CO`, the mutagenic call [1] was “inactive; negative”, the mutagenic call [2] was “inactive; negative” and the mutagenic call (Test System: AMES SALMONELLA TYPHIMURIUM, Strain/Indicator: TA97, Metabolic Activation: NONE, Method: PREINCUBATION) was “inactive; negative”. The mutagenic call (Test System: AMES SALMONELLA TYPHIMURIUM, Strain/Indicator: TA97, Metabolic Activation: S-9, Method: PREINCUBATION) was “inactive; negative”, the mutagenic call [3] was “inactive; negative” and the mutagenic call [4] was “inactive; negative”. For the same compound, the mutagenic call [5] was “inactive; negative”, the mutagenic call [6] was “inactive; negative” and the mutagenic call (Test System: AMES SALMONELLA TYPHIMURIUM, Strain/Indicator: TA102, Metabolic Activation: NONE, Method: PREINCUBATION) was “inactive; negative”. The mutagenic call (Test System: AMES SALMONELLA TYPHIMURIUM, Strain/Indicator: TA102, Metabolic Activation: S-9, Method: PREINCUBATION) was “inactive; negative”, the mutagenic call [7] was “inactive; negative” and the mutagenic call [8] was “inactive; negative”. The mutagenic call [9] was “inactive; negative”, the mutagenic call [10] was “inactive; negative” and the mutagenic call (Test System: AMES SALMONELLA TYPHIMURIUM, Strain/Indicator: TA1538, Metabolic Activation: NONE, Method: STANDARD PLATE) was “inactive; negative”. The mutagenic call (Test System: AMES SALMONELLA TYPHIMURIUM, Strain/Indicator: TA1538, Metabolic Activation: RAT, LIVER, S-9, AROCLOR 1254, Method: STANDARD PLATE) was “inactive; negative”, the mutagenic call (Test System: E. COLI, Strain/Indicator: WP2, Metabolic Activation: NONE, Method: STANDARD PLATE) was “inactive; negative” and the mutagenic call (Test System: E. COLI, Strain/Indicator: WP2, Metabolic Activation: RAT, LIVER, S-9, AROCLOR 1254, Method: STANDARD PLATE) was “inactive; negative”.

`CCc1c(N)ccc2ccccc12` was tested, and the mutagenic call [3] was “inactive; negative”, the mutagenic call (Test System: AMES SALMONELLA TYPHIMURIUM, Strain/Indicator: TA98, Metabolic Activation: RAT LIVER S-9, AROCLOR, Method: STANDARD PLATE) was “active; positive” and the mutagenic call [5] was “inactive; negative”. The mutagenic call (Test System: AMES SALMONELLA TYPHIMURIUM, Strain/Indicator: TA100, Metabolic Activation: RAT LIVER S-9, AROCLOR, Method: STANDARD PLATE) was “active; positive”.

`CC(C)(C)C(Br)C(=O)Nc1ccccc1` (configuration not stated) was tested, and the mutagenic call (Test System: AMES SALMONELLA TYPHIMURIUM, Strain/Indicator: TA100, Metabolic Activation: MOUSE, LIVER, S-9, AROCLOR 1254, Method: STANDARD PLATE) was “inactive; negative” and the mutagenic call [5] was “inactive; negative”.

`CCCCN(C[C@H](CO)OCc1ccccc1)N=O` was tested, and the mutagenic call [11] was “inactive; negative” and the mutagenic call (Test System: AMES SALMONELLA TYPHIMURIUM, Strain/Indicator: TA100, Metabolic Activation: RAT, LIVER, S-9, PCB, Method: PREINCUBATION) was “active; positive”.

For `Cl/C=C/CCl`, the mutagenic call (End Point: IN VITRO CHROMOSOMAL ABERRATIONS, Test System: CHL CELLS, Metabolic Activation: RAT, LIVER, S-9, SODIUM PHENOBARBITAL AND 5,6-BENZOFLAVONE) was “active; positive (structural and ploidy changes)”, the mutagenic call [1] was “inactive; negative; previous trial yielded positive result at 49.1 ug/ml but no dose-respo” and the mutagenic call [2] was “inactive; negative”. For the same compound, the mutagenic call (Test System: AMES SALMONELLA TYPHIMURIUM, Strain/Indicator: RSJ100, Metabolic Activation: NONE, Method: VAPOR PHASE) was “active; positive”, the mutagenic call (Test System: AMES SALMONELLA TYPHIMURIUM, Strain/Indicator: TA98, Metabolic Activation: HAMSTER, LIVER, S-9, AROCLOR 1254, Method: STANDARD PLATE) was “active; positive” and the mutagenic call (Test System: AMES SALMONELLA TYPHIMURIUM, Strain/Indicator: TA98, Metabolic Activation: NONE, Method: DESICCATOR) was “active; positive”. The mutagenic call [3] was “active; positive”, the mutagenic call (Test System: AMES SALMONELLA TYPHIMURIUM, Strain/Indicator: TA98, Metabolic Activation: RAT, LIVER, S-9, AROCLOR 1254, Method: DESICCATOR) was “active; positive” and the mutagenic call [4] was “active; positive”. The mutagenic call (Test System: AMES SALMONELLA TYPHIMURIUM, Strain/Indicator: TA100, Metabolic Activation: HAMSTER, LIVER, S-9, AROCLOR 1254, Method: STANDARD PLATE) was “active; positive”, the mutagenic call (Test System: AMES SALMONELLA TYPHIMURIUM, Strain/Indicator: TA100, Metabolic Activation: NONE, Method: DESICCATOR) was “active; positive” and the mutagenic call [5] was “active; positive”. The mutagenic call (Test System: AMES SALMONELLA TYPHIMURIUM, Strain/Indicator: TA100, Metabolic Activation: RAT, LIVER, S-9, AROCLOR 1254, Method: DESICCATOR) was “active; positive”, the mutagenic call [6] was “active; positive” and the mutagenic call (Test System: AMES SALMONELLA TYPHIMURIUM, Strain/Indicator: TA1535, Metabolic Activation: HAMSTER, LIVER, S-9, AROCLOR 1254, Method: STANDARD PLATE) was “active; positive”. For the same compound, the mutagenic call (Test System: AMES SALMONELLA TYPHIMURIUM, Strain/Indicator: TA1535, Metabolic Activation: NONE, Method: DESICCATOR) was “active; positive”, the mutagenic call [7] was “active; positive” and the mutagenic call (Test System: AMES SALMONELLA TYPHIMURIUM, Strain/Indicator: TA1535, Metabolic Activation: RAT, LIVER, S-9, AROCLOR 1254, Method: DESICCATOR) was “active; positive”. The mutagenic call [8] was “active; positive”, the mutagenic call (Test System: AMES SALMONELLA TYPHIMURIUM, Strain/Indicator: TA1537, Metabolic Activation: HAMSTER, LIVER, S-9, AROCLOR 1254, Method: STANDARD PLATE) was “inactive; negative” and the mutagenic call [9] was “inactive; negative”. For the same compound, the mutagenic call [10] was “inactive; negative”, the mutagenic call (Test System: AMES SALMONELLA TYPHIMURIUM, Strain/Indicator: TPT100, Metabolic Activation: NONE, Method: VAPOR PHASE) was “active; positive” and the mutagenic call (Test System: UDS HUMAN HEPATOCYTES, Strain/Indicator: THY INCORP, Metabolic Activation: NONE, Method: AUTORADIOGRAPHY) was “active; positive”. For the same compound, the mutagenic call (Test System: UDS RAT HEPATOCYTES, Strain/Indicator: THY INCORP, Metabolic Activation: NONE, Method: AUTORADIOGRAPHY) was “active; positive” and the mutagenic call (Test System: UDS RAT HEPATOCYTES, Strain/Indicator: THY INCORP, Metabolic Activation: NONE, Method: IN VIVO-IN VITRO) was “inactive; negative”.

With `O=[N+]([O-])c1cc2c(ccc3ccccc32)c2c1C=C[C@H](O)[C@H]2O` the mutagenic call [12] was “active; positive”, the mutagenic call (Test System: AMES SALMONELLA TYPHIMURIUM, Strain/Indicator: TA98, Metabolic Activation: RAT, LIVER, S-9, AROCLOR 1254, Method: PREINCUBATION) was “inactive; negative” and the mutagenic call [11] was “active; positive”. The mutagenic call (Test System: AMES SALMONELLA TYPHIMURIUM, Strain/Indicator: TA100, Metabolic Activation: RAT, LIVER, S-9, AROCLOR 1254, Method: PREINCUBATION) was “active; positive”.

For `COc1cccc(/C=C/c2ccc(N)cc2)c1`, the mutagenic call (Test System: AMES SALMONELLA TYPHIMURIUM, Strain/Indicator: TA98(1,8-DNP6), Metabolic Activation: NONE, Method: STANDARD PLATE) was “inactive; negative”, the mutagenic call (Test System: AMES SALMONELLA TYPHIMURIUM, Strain/Indicator: TA98(1,8-DNP6), Metabolic Activation: S-9, Method: STANDARD PLATE) was “active; positive” and the mutagenic call [3] was “active; positive”. For the same compound, the mutagenic call (Test System: AMES SALMONELLA TYPHIMURIUM, Strain/Indicator: TA98, Metabolic Activation: S-9, Method: STANDARD PLATE) was “active; positive”, the mutagenic call [5] was “inactive; negative” and the mutagenic call (Test System: AMES SALMONELLA TYPHIMURIUM, Strain/Indicator: TA100, Metabolic Activation: S-9, Method: STANDARD PLATE) was “active; positive”.

`O=S(=O)(O)OCc1c2ccccc2c(CO)c2c1ccc1ccccc12` was tested, and the mutagenic call [12] was “active; positive”.

`Cc1c(N=[N+]([O-])c2cccc([N+](=O)[O-])c2C)cccc1[N+](=O)[O-]` was tested, and the mutagenic call [12] was “inactive; negative”, the mutagenic call (Test System: AMES SALMONELLA TYPHIMURIUM, Strain/Indicator: TA98, Metabolic Activation: RAT, LIVER, S-9, PHENOBARBITAL AND 5,6-BENZOFLAVONE, Method: PREINCUBATION) was “inactive; negative” and the mutagenic call [11] was “inactive; negative”. The mutagenic call (Test System: AMES SALMONELLA TYPHIMURIUM, Strain/Indicator: TA100, Metabolic Activation: RAT, LIVER, S-9, PHENOBARBITAL AND 5,6-BENZOFLAVONE, Method: PREINCUBATION) was “inactive; negative”.
